# US12446584B2, “Termiticide composition and methods for treating termites” (ADAMA MAKHTESHIM LTD., priority 2013, dated 2025)
# Read-outs that look alike come from different tables or passages of the source.
# Key:
# Type in all cases: in vivo
# [1] = tested on: Formosan subterranean termites (Coptotermes formosanus); experiment: Thin plate bioassay; conditions: 0.05% solution
# Procedure: (§1) A laboratory study was conducted, using recently collected R. flavipes and C. formosanus. Thin plate bioassays were assembled using 0.6 cm glass and 0.6 cm clear Lexan. A sheet of 20.3×66 cm glass was used for the bottom. Two pieces of 2.5×61 cm glass were laid along the long edges, and two pieces of […]. Each arena had 450 g of screened sand evenly applied, and moistened with deionized water to help hold it in place during construction of the arenas. Fisher brand tongue depressors, cut in half, were used as a food source for the termites, and placed at one end of the arena. Prior to adding the Lexan top sheets, 0.6 cm holes were drilled at one end, and three 0.6 cm treatment apertures were drilled equally spaced apart at the center line. One 8 cm Petri dish with a 0.6 cm hole drilled in the bottom was lined up with the hole at the end of the top sheet, and glued down. Glue was allowed to dry for 72 hours. Large binder clips were used to hold the arena together.
# (§2) Termiticide solutions were prepared as follows: Fipronil 0.017%; Fipronil 0.03%; Imidacloprid 0.05%; Imi-Fip 0.067% (Imidacloprid 0.05%, Fipronil 0.017%); and Untreated Control (water only). Ten ml of each finished solution of termiticide were applied to each arena: each of the three treatment apertures received 3.3 ml of termiticide. The treatments were allowed to dry for 24 hours, and the treatment apertures were covered with a 2.5×7.5 cm microscope slide. In each Petri dish, 500 worker and 15 soldier termites were added, using either R. flavipes or C. formosanus. Each treatment was replicated four times. Data regarding distance tunneled and mortality were collected daily for eight days. Data was analyzed using Analysis of Variance (ANOVA) and means were separated by Tukey's HSD (Honest Significant Difference test (IBM SPSS v 19).
# [2] = tested on: Eastern subterranean termites (Reticulitermes flavipes); experiment: Thin plate bioassay; conditions: 0.05% solution
# Procedure: as §1, §2
# [3] = tested on: Formosan Coptotermes formosanus termites; experiment: Transfer effects among nestmates (donor/recipient Petri dish arenas); conditions: donors treated with 50 ppm; for mortality at 50 ppm: Coptotermes formosanus
# Procedure: (§3) The purpose of this study was to determine whether there is transference of […] among nestmates of subterranean termites. Arenas for this study consisted of a 15 cm Petri dish. […] Donor and untreated marked control termites were marked using RustOleum® Marking Paint, using methodology described by Keefer et al. 2012.
# (§4) Two untreated soldier termites for each species were added to each arena to simulate colony dynamics. Post-treatment observations for mortality were made at 4 h and then daily through day 7.
# [4] = tested on: Eastern Subterranean Reticulitermes flavipes termites; experiment: as above; conditions: donors treated with 50 ppm; for mortality at 50 ppm: Reticulitermes flavipes
# Procedure: as §3, §4
# [5] = 4 h, by treatment (all ratios), 4 h, read-out: Mean % mortality of donors and recipients
# [6] = 4 h, donor:recipient ratio 1:19, 4 h, read-out: Mean total % mortality of donors and recipients
# [7] = 4 h, donor:recipient ratio 5:15, 4 h, read-out: Mean total % mortality of donors and recipients
# [8] = 4 h, donor:recipient ratio 10:10, 4 h, read-out: Mean total % mortality of donors and recipients
# [9] = 4 h, donor:recipient ratio 15:5, 4 h, read-out: Mean total % mortality of donors and recipients
# [10] = 24 h, by treatment (all ratios), 1 d, read-out: Mean % mortality of donors and recipients
# [11] = 24 h, donor:recipient ratio 1:19, 1 d, read-out: Mean total % mortality of donors and recipients
# [12] = 24 h, donor:recipient ratio 5:15, 1 d, read-out: Mean total % mortality of donors and recipients
# [13] = 24 h, donor:recipient ratio 10:10, 1 d, read-out: Mean total % mortality of donors and recipients
# [14] = 24 h, donor:recipient ratio 15:5, 1 d, read-out: Mean total % mortality of donors and recipients
# [15] = 48 h, by treatment (all ratios), 2 d, read-out: Mean % mortality of donors and recipients
# [16] = 48 h, donor:recipient ratio 1:19, 2 d, read-out: Mean total % mortality of donors and recipients
# [17] = 48 h, donor:recipient ratio 5:15, 2 d, read-out: Mean total % mortality of donors and recipients
# [18] = 48 h, donor:recipient ratio 10:10, 2 d, read-out: Mean total % mortality of donors and recipients
# [19] = 48 h, donor:recipient ratio 15:5, 2 d, read-out: Mean total % mortality of donors and recipients
# [20] = 72 h, by treatment (all ratios), 3 d, read-out: Mean % mortality of donors and recipients
# [21] = 72 h, donor:recipient ratio 1:19, 3 d, read-out: Mean total % mortality of donors and recipients
# [22] = 72 h, donor:recipient ratio 5:15, 3 d, read-out: Mean total % mortality of donors and recipients
# [23] = 72 h, donor:recipient ratio 10:10, 3 d, read-out: Mean total % mortality of donors and recipients
# [24] = 72 h, donor:recipient ratio 15:5, 3 d, read-out: Mean total % mortality of donors and recipients
# [25] = 96 h, by treatment (all ratios), 4 d, read-out: Mean % mortality of donors and recipients
# [26] = 96 h, donor:recipient ratio 1:19, 4 d, read-out: Mean total % mortality of donors and recipients
# [27] = 96 h, donor:recipient ratio 5:15, 4 d, read-out: Mean total % mortality of donors and recipients
# [28] = 96 h, donor:recipient ratio 10:10, 4 d, read-out: Mean total % mortality of donors and recipients
# [29] = 96 h, donor:recipient ratio 15:5, 4 d, read-out: Mean total % mortality of donors and recipients
# [30] = 120 h, by treatment (all ratios), 5 d, read-out: Mean % mortality of donors and recipients
# [31] = 120 h, donor:recipient ratio 1:19, 5 d, read-out: Mean total % mortality of donors and recipients
# [32] = 120 h, donor:recipient ratio 5:15, 5 d, read-out: Mean total % mortality of donors and recipients
# [33] = 120 h, donor:recipient ratio 10:10, 5 d, read-out: Mean total % mortality of donors and recipients
# [34] = 120 h, donor:recipient ratio 15:5, 5 d, read-out: Mean total % mortality of donors and recipients
# [35] = 144 h, by treatment (all ratios), 6 d, read-out: Mean % mortality of donors and recipients
# [36] = 144 h, donor:recipient ratio 1:19, 6 d, read-out: Mean total % mortality of donors and recipients
# [37] = 144 h, donor:recipient ratio 5:15, 6 d, read-out: Mean total % mortality of donors and recipients
# [38] = 144 h, donor:recipient ratio 10:10, 6 d, read-out: Mean total % mortality of donors and recipients
# [39] = 144 h, donor:recipient ratio 15:5, 6 d, read-out: Mean total % mortality of donors and recipients
# [40] = 168 h, by treatment (all ratios), 7 d, read-out: Mean % mortality of donors and recipients
# [41] = 168 h, donor:recipient ratio 1:19, 7 d, read-out: Mean total % mortality of donors and recipients
# [42] = 168 h, donor:recipient ratio 5:15, 7 d, read-out: Mean total % mortality of donors and recipients
# [43] = 168 h, donor:recipient ratio 10:10, 7 d, read-out: Mean total % mortality of donors and recipients
# [44] = 168 h, donor:recipient ratio 15:5, 7 d, read-out: Mean total % mortality of donors and recipients
smiles,measurement,setting,value
"O=[N+]([O-])NC1=NCCN1Cc1ccc(Cl)nc1 [Imidacloprid, N-[1-[(6-Chloro-3-pyridyl)methyl]-4,5-dihydroimidazol-2-yl]nitramide]",Mean % mortality,[1]; 1 day post-treatment,0.80 a %
same,Mean % mortality,[1]; 2 days post-treatment,5.30 b %
same,Mean % mortality,[1]; 3 days post-treatment,23.25 a %
same,Mean % mortality,[1]; 4 days post-treatment,30.00 a %
same,Mean % mortality,[1]; 5 days post-treatment,55.00 a %
same,Mean % mortality,[1]; 6 days post-treatment,88.75 b %
same,Mean % mortality,[1]; 7 days post-treatment,100.00 a %
same,Mean % mortality,[1]; 8 days post-treatment,100.00a %
same,Mean % mortality,[2]; 1 day post-treatment,6.35 a %
same,Mean % mortality,[2]; 2 days post-treatment,12.00 b %
same,Mean % mortality,[2]; 3 days post-treatment,75.00 a %
same,Mean % mortality,[2]; 4 days post-treatment,80.00 a %
same,Mean % mortality,[2]; 5 days post-treatment,80.00 c %
same,Mean % mortality,[2]; 6 days post-treatment,100.00 a %
same,Mean % mortality,[2]; 7 days post-treatment,100.00 a %
same,Mean % mortality,[2]; 8 days post-treatment,100.00 a %
same,mortality at 50 ppm,[3]; [5],9%
same,mortality at 50 ppm,[3]; [6],0%
same,mortality at 50 ppm,[3]; [7],3.75%
same,mortality at 50 ppm,[3]; [8],17.5%
same,mortality at 50 ppm,[3]; [9],17.5%
same,mortality at 50 ppm,[3]; [10],32.5%
same,mortality at 50 ppm,[3]; [11],1.25%
same,mortality at 50 ppm,[3]; [12],12.5%
same,mortality at 50 ppm,[3]; [13],85%
same,mortality at 50 ppm,[3]; [14],31.2%
same,mortality at 50 ppm,[3]; [15],52.5%
same,mortality at 50 ppm,[3]; [16],5%
same,mortality at 50 ppm,[3]; [17],22.5%
same,mortality at 50 ppm,[3]; [18],96.2%
same,mortality at 50 ppm,[3]; [19],86.2%
same,mortality at 50 ppm,[3]; [20],67.2%
same,mortality at 50 ppm,[3]; [21],33.8%
same,mortality at 50 ppm,[3]; [22],37.5%
same,mortality at 50 ppm,[3]; [23],100%
same,mortality at 50 ppm,[3]; [24],100%
same,mortality at 50 ppm,[3]; [25],76.2%
same,mortality at 50 ppm,[3]; [26],72.5%
same,mortality at 50 ppm,[3]; [27],55%
same,mortality at 50 ppm,[3]; [28],100%
same,mortality at 50 ppm,[3]; [29],100%
same,mortality at 50 ppm,[3]; [30],87.5%
same,mortality at 50 ppm,[3]; [31],82.5%
same,mortality at 50 ppm,[3]; [32],67.5%
same,mortality at 50 ppm,[3]; [33],100%
same,mortality at 50 ppm,[3]; [34],100%
same,mortality at 50 ppm,[3]; [35],96.2%
same,mortality at 50 ppm,[3]; [36],93.8%
same,mortality at 50 ppm,[3]; [37],91.2%
same,mortality at 50 ppm,[3]; [38],100%
same,mortality at 50 ppm,[3]; [39],100%
same,mortality at 50 ppm,[3]; [40],97%
same,mortality at 50 ppm,[3]; [41],95%
same,mortality at 50 ppm,[3]; [42],96.2%
same,mortality at 50 ppm,[3]; [43],100%
same,mortality at 50 ppm,[3]; [44],100%
same,Mean % mortality of donors and recipients,"[3]; by treatment (all ratios), 4 h",9.68 b %
same,Mean % mortality of donors and recipients,"[3]; by treatment (all ratios), 7 d",97.81 a %
same,mortality at 50 ppm,[4]; [5],27%
same,mortality at 50 ppm,[4]; [6],10%
same,mortality at 50 ppm,[4]; [7],21.2%
same,mortality at 50 ppm,[4]; [8],43.8%
same,mortality at 50 ppm,[4]; [9],33.8%
same,mortality at 50 ppm,[4]; [10],64.4%
same,mortality at 50 ppm,[4]; [11],30%
same,mortality at 50 ppm,[4]; [12],51.2%
same,mortality at 50 ppm,[4]; [13],80%
same,mortality at 50 ppm,[4]; [14],96.2%
same,mortality at 50 ppm,[4]; [15],64.4%
same,mortality at 50 ppm,[4]; [16],30%
same,mortality at 50 ppm,[4]; [17],51.2%
same,mortality at 50 ppm,[4]; [18],80%
same,mortality at 50 ppm,[4]; [19],96.2%
same,mortality at 50 ppm,[4]; [20],73.4%
same,mortality at 50 ppm,[4]; [21],33.8%
same,mortality at 50 ppm,[4]; [22],60%
same,mortality at 50 ppm,[4]; [23],100%
same,mortality at 50 ppm,[4]; [24],100%
same,mortality at 50 ppm,[4]; [25],73.4%
same,mortality at 50 ppm,[4]; [26],72.5%
same,mortality at 50 ppm,[4]; [27],71.2%
same,mortality at 50 ppm,[4]; [28],100%
same,mortality at 50 ppm,[4]; [29],100%
same,mortality at 50 ppm,[4]; [30],90.9%
same,mortality at 50 ppm,[4]; [31],76.2%
same,mortality at 50 ppm,[4]; [32],87.5%
same,mortality at 50 ppm,[4]; [33],100%
same,mortality at 50 ppm,[4]; [34],100%
same,mortality at 50 ppm,[4]; [35],98.4%
same,mortality at 50 ppm,[4]; [36],98.8%
same,mortality at 50 ppm,[4]; [37],95%
same,mortality at 50 ppm,[4]; [38],100%
same,mortality at 50 ppm,[4]; [39],100%
same,mortality at 50 ppm,[4]; [40],100%
same,mortality at 50 ppm,[4]; [41],100%
same,mortality at 50 ppm,[4]; [42],100%
same,mortality at 50 ppm,[4]; [43],100%
same,mortality at 50 ppm,[4]; [44],100%
same,Mean % mortality of donors and recipients,"[4]; by treatment (all ratios), 4 h",27.18 a %
